Results published in US9226501B2, “Pesticidal compositions and processes related thereto” (Dow AgroSciences LLC, priority 2012, dated 2016).

Experiments:
[1] = system: Beet Armyworm (BAW) (spodoptera exigua); assay: Bioassay on beet armyworm (BAW), 128-well diet tray assay; type: in vivo; details: for pest or weed control at 50 µg/cm2: Spodoptera exigua, 168 h, % mortality, second instar larvae, 50 μg/cm^2 on artificial diet, five to seven days, 25° C., read-out: BAW Rating; for BAW Rating: Table 5, prophetic compounds subsequently exemplified, beet armyworm
Protocol: (§1) Certain molecules disclosed in this document were tested against BAW, CEW and CL using procedures described in the following examples. In the reporting of the results, the “BAW & CEW & CL Rating Table” was used (See Table Section).
Bioassays on BAW were conducted using a 128-well diet tray assay. One to five second instar BAW larvae were placed in each well (3 mL) of the diet tray that had been previously filled with 1 mL of artificial diet to which 50 μg/cm^2 of the test compound (dissolved in 50 μL of 90:10 acetone-water mixture) had been applied (to each of eight wells) and then allowed to dry. Trays were covered with a clear self-adhesive cover, and held at 25° C., 14:10 light-dark for five to seven days. Percent mortality was recorded for the larvae in each well; activity in the eight wells was then averaged. The results are indicated in the tables entitled “Table 3: Assay Results Part 1” and “Table 4: Assay Results Part 2” (See Table Section).

[2] = system: Cabbage Looper (CL) (Trichoplusia ni); assay: Bioassay on cabbage looper (CL), 128-well diet tray assay; type: in vivo; details: for pest or weed control at 50 µg/cm2: Trichoplusia ni, 168 h, % mortality, second instar larvae, 50 μg/cm^2 on artificial diet, five to seven days, 25° C., read-out: CL Rating; for CL Rating: Table 5, prophetic compounds subsequently exemplified, cabbage looper
Protocol: as §1
Bioassays on CL were conducted using a 128-well diet tray assay. One to five second instar CL larvae were placed in each well (3 mL) of the diet tray that had been previously filled with 1 mL of artificial diet to which 50 μg/cm^2 of the test compound (dissolved in 50 μL of 90:10 acetone-water mixture) had been applied (to each of eight wells) and then allowed to dry. Trays were covered with a clear self-adhesive cover, and held at 25° C., 14:10 light-dark for five to seven days. Percent mortality was recorded for the larvae in each well; activity in the eight wells was then averaged. The results are indicated in the table entitled “Table 4: Assay Results Part 2” (See Table Section).

SMILES	pest or weed control at 50 µg/cm2 [1] [%]	pest or weed control at 50 µg/cm2 [2] [%]	BAW Rating [1]	CL Rating [2]
Cc1cc(C(/C=C/c2ccc(C(=O)N[C@H](C)C(=O)NCC(F)(F)F)c(C(F)(F)F)c2)C(F)(F)F)cc(Cl)c1Cl (some centres unmarked) [FA20]	50 to 100	50 to 100		
CC(NC(=O)c1ccc(/C=C/C(c2cc(Cl)c(Cl)c(Cl)c2)C(F)(F)F)cc1C(F)(F)F)C(=O)NCCF (centres unmarked) [P1618A, (E)-N-(1-((2-Fluoroethyl)amino)-1-oxopropan-2-yl)-4-(4,4,4-trifluoro-3-(3,4,5-trichlorophenyl)but-1-en-1-yl)-2-(trifluoromethyl)benzamide]			A (50-100)	A (50-100)
CCC[C@@H](NC(=O)c1ccc(/C=C/C(c2cc(Cl)c(Cl)c(Cl)c2)C(F)(F)F)cc1Br)C(=O)NCC(F)(F)F (some centres unmarked) [FA19]	50 to 100	50 to 100		
CC(C)(C)CNC(=O)C(C)(C)NC(=O)c1ccc(/C=C/C(c2cc(Cl)c(Cl)c(Cl)c2)C(F)(F)F)cc1Br (centres unmarked) [FA15]	50 to 100	50 to 100		
C[C@@H](NC(=O)c1ccc(/C=C/C(c2cc(Cl)c(Br)c(Cl)c2)C(F)(F)F)cc1C(F)(F)F)C(=O)NCC(F)(F)F (some centres unmarked) [FA21]	50 to 100	50 to 100		
C[C@@H](NC(=O)c1ccc(/C=C/C(c2ccc(Cl)c([N+](=O)[O-])c2)C(F)(F)F)cc1Br)C(=O)NCC(F)(F)F (some centres unmarked) [P730]			A (50-100)	A (50-100)
Cc1cc(/C=C/C(c2cc(Cl)c(Cl)c(Cl)c2)C(F)(F)F)ccc1C(=O)NCC(=O)NC(C)C(F)(F)F (centres unmarked) [P1592]			A (50-100)	A (50-100)
O=C(CCNC(=O)c1ccc(/C=C/C(c2cc(Cl)c(Cl)c(Cl)c2)C(F)(F)F)cc1Br)NCC(F)(F)F (centres unmarked) [P1638]			A (50-100)	A (50-100)
O=C(NCC(=S)NCC(F)(F)F)c1ccc(/C=C/C(c2cc(Cl)c(Cl)c(Cl)c2)C(F)(F)F)cc1Cl (centres unmarked) [P1558]			A (50-100)	A (50-100)
C[C@@H](NC(=O)c1ccc(/C=C/C(c2cc(Cl)cc(Br)c2)C(F)(F)F)cc1C(F)(F)F)C(=O)NCC(F)(F)F (some centres unmarked) [P588]			A (50-100)	A (50-100)
C[C@@H](NC(=O)c1ccc(/C=C/C(c2cc(Br)cc(Br)c2)C(F)(F)F)cc1C(F)(F)F)C(=O)NCCF (some centres unmarked) [P2043]			A (50-100)	A (50-100)
C[C@@H](NC(=O)c1ccc(/C=C/C(c2cc(Br)cc(Br)c2)C(F)(F)F)cc1Br)C(=O)NCC(F)F (some centres unmarked) [P2036]			A (50-100)	A (50-100)
C[C@@H](NC(=O)c1ccc(/C=C/C(c2cc(Cl)cc(Cl)c2)C(F)(F)C(F)(F)F)cc1C(F)(F)F)C(=O)NCC(F)(F)F (some centres unmarked) [P1693]			A (50-100)	A (50-100)
C[C@@H](NC(=O)c1ccc(/C=C/C(c2cc(Br)cc(Br)c2)C(F)(F)F)cc1C(F)(F)F)C(=O)NCC(F)F (some centres unmarked) [P2038]			A (50-100)	A (50-100)
CC(NC(=O)CNC(=O)c1ccc(/C=C/C(c2cc(Br)cc(Br)c2)C(F)(F)F)cc1Cl)C(F)(F)F (centres unmarked) [P2010]			A (50-100)	A (50-100)
O=C(CNC(=O)c1ccc(/C=C/C(c2cc(F)c(F)c(F)c2)C(F)(F)F)cc1Br)NCC(F)(F)F (centres unmarked) [P1197]			A (50-100)	A (50-100)
CCNC(=O)[C@@H](C)NC(=O)c1ccc(/C=C/C(c2cc(Cl)c(Cl)c(Cl)c2)C(F)(F)F)cc1C (some centres unmarked) [P1624]			A (50-100)	A (50-100)
O=C(CNC(=O)c1ccc(/C=C/C(c2cc(C(F)(F)F)cc(C(F)(F)F)c2)C(F)(F)F)cc1Br)NCC(F)(F)F (centres unmarked) [P1269]			A (50-100)	A (50-100)
C[C@@H](NC(=O)c1ccc(/C=C/C(c2cc(Cl)cc(Cl)c2)C(F)(F)F)cc1C(F)(F)F)C(=O)NCC(F)(F)F (some centres unmarked) [P1698]			A (50-100)	A (50-100)
